Measurements from patent US20230150924A1, “NOVEL COMPOUND HAVING CANCER METASTASIS INHIBITORY ACTIVITY, PREPARATION METHOD THEREFOR, AND PHARMACEUTICAL COMPOSITION FOR INHIBITING CANCER METASTASIS AND INVASION OR TREATING COLORECTAL CANCER, COMPRISING COMPOUND” (CELLGENTEK CO., LTD., priority 2019, published 2023).
Like-named read-outs stand apart in the source and are kept apart here.

Legend:
KAI1 promoter = KAI1 promoter luciferase reporter assay in transfected Caco2 cells; type: cell-based, human; conditions: Homo sapiens, Caco-2, 16 h, read-out: Relative KAI promoter activity
[1] = system: invasion of colorectal cancer cells; experiment: In vivo relative invation (invasion; EV and KITENIN controls, no method described); conditions: relative to EV (=1); KIT = KITENIN
[2] = 1 μM compound, 16 hours, transfected Caco2 cells, luciferase activity relative to DMSO control (=1)

Compound | fold induction at 1 µM (KAI1 promoter; [2]) | In vivo relative invation [1] | fold induction at 1 µM (KAI1 promoter)
CN(C)c1ccc(C(=O)CNC(=O)c2ccccc2F)cc1 [Example 90, N-(2-(4-(dimethylamino)phenyl)-2-oxoethyl)-2-fluorobenzamide] | 1.88 | 1.124 | 
O=C(CNC(=O)c1ccc(CN2CCN(c3ccccn3)CC2)cc1)c1ccccc1 [Example 264, N-(2-oxo-2-phenylethyl)-4-((4-(pyridin-2-yl)piperazin-1-yl)methyl)benzamide] | 1.91 | 1.199 | 
CN(Cc1ccccc1C(=O)NCC(=O)c1ccccc1)C1CCCCC1 [Example 298, 2-((cyclohexyl(methyl)amino)methyl)-N-(2-oxo-2-phenylethyl)benzamide] | 1.34 | 1.213 | 
CC(Oc1ccccc1)C(=O)NCC(=O)c1ccccc1 (centres unmarked) [Example 2, N-(2-oxo-2-phenylethyl)-2-phenoxypropanamide] |  | 0.8651 | 1.14
O=C(COc1ccccc1C(=O)NCC(=O)c1ccccc1)Nc1ccccc1Cl [Example 224, 2-(2-((2-chlorophenyl)amino)-2-oxoethoxy)-N-(2-oxo-2-phenylethyl)benzamide] | 1.13 | 1.25 | 
O=C(CNC(=O)c1ccccc1OC1CCN(C(=O)c2ccco2)CC1)c1ccccc1 [Example 155, 2-((1-(furan-2-carbonyl)piperidin-4-yl)oxy)-N-(2-oxo-2-phenylethyl)benzamide] | 0.99 | 1.151 | 
C=CCNC(=O)COc1ccccc1C(=O)NCC(=O)c1ccccc1 [Example 203, 2-(2-(allylamino)-2-oxoethoxy)-N-(2-oxo-2-phenylethyl)benzamide] | 1.05 | 1.178 | 
CN(C)c1ccc(C(=O)CNC(=O)c2ccccc2Cl)cc1 [Example 93, 2-chloro-N-(2-(4-(dimethylamino)phenyl)-2-oxoethyl)benzamide] | 2.48 | 1.091 | 
CC1CN(Cc2ccc(C(=O)NCC(=O)c3ccccc3)cc2)CC(C)O1 (centres unmarked) [Example 278, 4-((2,6-dimethylmorpholino)methyl)-N-(2-oxo-2-phenylethyl)benzamide] | 1.38 | 1.217 | 
O=C(CNC(=O)c1ccc(C(F)(F)F)cc1)c1ccccc1 [Example 32, N-(2-oxo-2-phenylethyl)-4-(trifluoromethyl)benzamide] | 1.02 | 1.383 | 
O=C(CNC(=O)c1ccc(F)cc1F)c1ccc(Cl)cc1 [Example 64, N-(2-(4-chlorophenyl)-2-oxoethyl)-2,4ifluorobenzamide] | 1.35 | 1.083 | 
C/C=C/C(=O)NCC(=O)c1ccc(N2CCOCC2)cc1 [Example 139, (E)-N-(2-(4-morpholinophenyl)-2-oxoethyl)but-2-enamide] | 1.01 | 1.314 | 
COc1cc(OC)cc(C(=O)NCC(=O)c2ccccc2)c1 [Example 42, 3,5-dimethoxy-N-(2-oxo-2-phenylethyl)benzamide] | 1.12 | 1.525 | 
Cc1cccc(C(=O)N2CCC(Oc3ccccc3C(=O)NCC(=O)c3ccccc3)CC2)c1 [Example 163, 2-((1-(3-methylbenzoyl)piperidin-4-yl)oxy)-N-(2-oxo-2-phenylethyl)benzamide] | 1.1 | 1.163 | 
CCN(C)Cc1cccc(C(=O)NCC(=O)c2cccc(OC)c2)c1 [Example 287, 3-((ethyl (methyl)amino)methyl)-N-(2-(3-methoxyphenyl)-2-oxoethyl)benzamide] | 2.06 | 1.376 | 
O=C(CNC(=O)c1ccccc1OC1CCN(C(=O)c2cc(Cl)cc(Cl)c2)CC1)c1ccccc1 [Example 197, 2-((1-(3,5-dichlorobenzoyl)piperidin-4-yl)oxy)-N-(2-oxo-2-phenylethyl)benzamide] | 0.92 | 1.214 | 
O=C(CNC(=O)c1ccccc1OC1CCN(C(=O)c2ccc(Br)cc2)CC1)c1ccccc1 [Example 181, 2-((1-(4-bromobenzoyl)piperidin-4-yl)oxy)-N-(2-oxo-2-phenylethyl)benzamide] | 1.06 | 1.194 | 
O=C(COc1ccccc1C(=O)NCC(=O)c1ccccc1)NCc1ccccc1 [Example 204, 2-(2-(benzylamino)-2-oxoethoxy)-N-(2-oxo-2-phenylethyl)benzamide] | 1.3 | 1.095 | 
O=C(CNC(=O)c1cccc([N+](=O)[O-])c1)c1ccc(Cl)cc1 [Example 77, N-(2-(4-chlorophenyl)-2-oxoethyl)-3-nitrobenzamide] | 0.92 | 1.274 | 
O=C(CNC(=O)c1ccc(C(F)(F)F)cc1)c1ccc(Cl)cc1 [Example 75, N-(2-(4-chlorophenyl)-2-oxoethyl)-4-(trifluoromethyl)benzamide] | 0.71 | 1.283 | 

Compound | fold induction at 1 µM (KAI1 promoter; [2]) | In vivo relative invation [1] | fold induction at 1 µM (KAI1 promoter)
C/C=C/C(=O)NCC(=O)c1ccccc1 [Example 8, (E)-N-(2-oxo-2-phenylethyl)but-2-enamide] | 1.15 | 1.077 | 
CCN(CC)Cc1cccc(C(=O)NCC(=O)c2ccccc2)c1 [Example 247, 3-((diethylamino)methyl)-N-(2-oxo-2-phenylethyl)benzamide] | 1.27 | 1.124 | 
CN(C)c1ccc(C(=O)CNC(=O)c2ccc(OC(F)(F)F)cc2)cc1 [Example 119, N-(2-(4-(dimethylamino)phenyl)-2-oxoethyl)-4-(trifluoromethoxy)benzamide] | 1.35 | 1.203 | 
O=C(CNC(=O)c1ccccc1F)c1ccccc1 [Example 3, 2-fluoro-N-(2-oxo-2-phenylethyl)benzamide] |  | 1 | 2.12
O=C(CNC(=O)c1ccccc1C(F)(F)F)c1ccc(Cl)cc1 [Example 73, N-(2-(4-chlorophenyl)-2-oxoethyl)-2-(trifluoromethyl)benzamide] | 0.99 | 1.116 | 
CN(C)c1ccc(C(=O)CNC(=O)c2cccc(Cl)c2Cl)cc1 [Example 118, 2,3-dichloro-N-(2-(4-(dimethylamino)phenyl)-2-oxoethyl)benzamide] | 1.74 | 0.7681 | 
CC(C)(C)OC(=O)N1CCN(Cc2ccc(C(=O)NCC(=O)c3ccccc3)cc2)CC1 [Example 269, tert-butyl 4-(4-((2-oxo-2-phenylethyl)carbamoyl)benzyl) piperazine-1-carboxylate] | 1.38 | 1.163 | 
CN(C)c1ccc(C(=O)CNC(=O)c2cccc(Cl)c2)cc1 [Example 94, 3-chloro-N-(2-(4-(dimethylamino)phenyl)-2-oxoethyl)benzamide] | 1.81 | 1.096 | 
O=C(CNC(=O)c1ccc(CN2CCC(N3CCCCC3)CC2)cc1)c1ccccc1 [Example 260, 4-([1,4′-bipiperidin]-1′-ylmethyl)-N-(2-oxo-2-phenylethyl)benzamide] | 1.33 | 1.092 | 
O=C(CNS(=O)(=O)c1ccc(F)cc1)c1ccc(N2CCOCC2)cc1 [Example 146, 4-fluoro-N-(2-(4-morpholinophenyl)-2-oxoethyl)benzenesulfonamide] | 1.16 | 0.7474 | 
Cc1cc(C)cc(C(=O)NCC(=O)c2ccccc2)c1 [Example 40, 3,5=dimethyl-N-(2-oxo-2-phenylethyl)benzamide] | 1 | 1.173 | 
COc1cccc(C(=O)CNC(=O)c2cccc(CN3CCN(c4ccccc4OC)CC3)c2)c1 [Example 282, N-(2-(3-methoxyphenyl)-2-oxoethyl)-3-((4-(2-methoxyphenyl)piperazin-1-yl)methyl)benzamide] | 1.47 | 1.214 | 
O=C(CNC(=O)c1ccccc1OC1CCN(C(=O)c2ccc(OC(F)(F)F)cc2)CC1)c1ccccc1 [Example 199, N-(2-oxo-2-phenylethyl)-2-((1-(4-(trifluoromethoxy)benzoyl)piperidin-4-yl)oxy)benzamide] | 0.97 | 1.105 | 
O=C(CNC(=O)c1ccc(F)cc1F)c1ccccc1 [Example 22, 2,4-difluoro-N-(2-oxo-2-phenylethyl)benzamide] | 1.56 | 1.163 | 
CC(C)(C)C(=O)NCC(=O)c1ccccc1 [Example 24, N-(2-oxo-2-phenylethyl)pivalamide] | 0.84 | 1.128 | 
O=C(CNC(=O)c1cc(Cl)cc(Cl)c1)c1ccccc1 [Example 36, 3,5-dichloro-N-(2-oxo-2-phenylethyl)benzamide] | 1.16 | 1.056 | 
O=C(CNC(=O)c1cccc(C(F)(F)F)c1)c1ccccc1 [Example 31, N-(2-oxo-2-phenylethyl)-3-(trifluoromethyl)benzamide] | 1.18 | 0.8211 | 
CCN(CCO)Cc1ccc(C(=O)NCC(=O)c2ccccc2)cc1 [Example 274, 4-((ethyl(2-hydroxyethyl)amino)methyl)-N-(2-oxo-2-phenylethyl)benzamide] | 5.27 | 1.219 | 
Cc1ccccc1C(=O)NCC(=O)c1ccccc1 [Example 11, 2-methyl-N-(2-oxo-2-phenylethyl)benzamide] | 1.82 | 1.036 | 
CC(Oc1ccccc1)C(=O)NCC(=O)c1cccnc1 (centres unmarked) [Example 131, N-(2-oxo-2-(pyridin-3-yl)ethyl)-2-phenoxypropanamide] | 1.19 | 1.293 | 
